Data: patent US7960556B2, “Thiadiazole derivatives for the treatment of neuro-degenerative diseases” (NV reMYND, priority 2006, dated 2011)

Test system: α-synuclein cytotoxicity in M17-SYNwt cells
Assay: α-synuclein cytotoxicity assay: LDH leakage from paraquat-treated M17-SYNwt neuroblastoma cells;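 further: paraquat at 32 mM co-added with compound, 40 h exposure, LDH activity released into the culture medium measured, references are DMSO-only cells and paraquat plus DMSO cells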
Details: Homo sapiens, Neuroblastoma cell; for Emax: read-out: % Inhib.
From the text: An α-synuclein expression plasmid was constructed by sub-cloning the NcoI/XhoI fragment from 212T-SYN(WT) (Griffioen et al., Biochem Biophys Acta (2006) 1762(3):312-318) containing the cDNA of human wild type α-synuclein correspondingly into a standard mammalian expression vector pcDNA3.1 (Invitrogen) resulting into the plasmid pcDNA3.1-SYNwt. Plasmids pcDNA3.1 and pcDNA3.1-SYNwt were transfected to human neuroblastoma cells (ATCC No. CRL-2267) and independent clonal lines with the plasmids stably integrated into the genome were selected. […] Over-expression of α-synuclein in M17-SYNwt cell lines was confirmed by Western analysis.
Due to the high levels of α-synuclein M17-SYNwt cells are exquisitely sensitivity to paraquat, a well-known risk factor of synuclein-dependent neuronal degeneration. In degenerated or dead cells lactate dehydrogenase (LDH) is leaked out of the cells into the extracellular environment due to a loss of plasma-membrane integrity. This principle was used to determine cytotoxicity by quantifying the level of leaked LDH into the growth medium.
The detailed method for determining α-synuclein cytotoxicity was as follows: From appropriate precultures of M17 and M17-SYN cells were seeded at 50,000 cells/cm^2 in Optimem Reduced Serum without phenol red (available from InVitrogen, Cat. 31985-047) supplemented with 5% fetal calf serum, 1 mM sodium pyruvate, 1× non-essential amino acids, 500 μg/ml G418 0,5× antibiotic/antimycotic. After 3 hours of incubation at 37° C./5% CO2 paraquat was added to the cells (final concentration of 32 mM), together with the test compound and the cells were further incubated for 40 hours. Subsequently, LDH activity was determined using Promega Cytotox 96 Non-Radioactive cytotoxicity assay, (Cat. G1780) according the instructions of the supplier.
In these experiments, the control group consisted of M17-SYNwt cells treated with DMSO, the untreated paraquat group consisted of M17-SYNwt cells treated with paraquat and DMSO, and the treated paraquat group consisted of M17-SYNwt cells treated with paraquat and the test compound dissolved in DMSO.

Structure (SMILES): CC1CN(c2nc(Cc3ccc(Cl)cc3)ns2)CCN1C(=O)/C=C/c1ccccc1 (stereo not drawn) [compound 86, 1-[(2E)-3-phenylprop-2-enoyl]-4-[3-(4-chlorobenzyl)-1,2,4-thiadiazol-5-yl]2-methylpiperazine]
- EC50: 1130 nM
- Emax: 81%

Structure (SMILES): CC(C)(C)c1ccc(C(=O)N2CCN(c3nc(Cc4ccc(F)cc4)ns3)CC2)cc1 [compound 180, 1-(4-tert-butylbenzoyl)-4-[3-(4-fluorobenzyl)-1,2,4-thiadiazol-5-yl]piperazine]
- Emax: 62%

Structure (SMILES): COc1cccc(Cc2nsc(N3CCN(C(=O)c4ccc(F)cc4)C(C)C3)n2)c1 (stereo not drawn) [compound 123, 1-(4-fluorobenzoyl)-4-[3-(3-methoxybenzyl)-1,2,4-thiadiazol-5-yl]-2-methylpiperazine]
- EC50: 140 nM
- Emax: 95%

Structure (SMILES): Cc1ccc(C(=O)N2CCN(c3nc(Cc4ccc(F)cc4)ns3)CC2C)cc1[N+](=O)[O-] (stereo not drawn) [compound 172, 1-(3-nitro-4-methylbenzoyl)-4-[3-(4-fluorobenzyl)-1,2,4-thiadiazol-5-yl]-2-methylpiperazine]
- Emax: 86%

Structure (SMILES): Cc1ccc(NC(=O)N2CCN(c3nc(Cc4ccc(F)cc4)ns3)CC2C)c(C)c1 (stereo not drawn) [compound 20, N-(2,4-dimethylphenyl)-4-[3-(4-fluorobenzyl)-1,2,4-thiadiazol-5-yl]-2-methylpiperazine-1-carboxamide]
- EC50: 760 nM
- Emax: 106%

Structure (SMILES): CC1CN(c2nc(Cc3ccc(F)cc3)ns2)CCN1C(=O)c1ccccc1Cl (stereo not drawn) [compound 166, 1-(2-chlorobenzoyl)-4-[3-(4-fluorobenzyl)-1,2,4-thiadiazol-5-yl]-2-methylpiperazine]
- Emax: 123%

Structure (SMILES): Cc1ccc(Cc2nsc(N3CCN(S(=O)(=O)c4cccc5cccnc45)CC3)n2)cc1 [compound 70, 1-[quinoline-8-sulfonyl]-4-[3-(4-methylbenzyl)-1,2,4-thiadiazol-5-yl]piperazine]
- Emax: 44%

Structure (SMILES): COc1ccc(S(=O)(=O)N(C)CCNc2nc(Cc3cccc(OC)c3)ns2)cc1 [compound 214, N′-[4-methoxyphenylsulfonyl]-N-[3-(3-methoxybenzyl)-1,2,4-thiadiazol-5-yl]-N′-methylethane-1,2-diamine]
- EC50: 498 nM
- Emax: 95%

Structure (SMILES): COc1ccc(CC(=O)N2CCN(c3nc(Cc4ccc(F)cc4)ns3)CC2C)cc1 (stereo not drawn) [compound 4, 1-(4-methoxyphenylacetyl)-4-[3-(4-fluorobenzyl)-1,2,4-thiadiazol-5-yl]-2-methylpiperazine]
- EC50: 820 nM
- Emax: 56%

Structure (SMILES): Cc1cccc(C)c1NC(=O)N1CCN(c2nc(Cc3ccc(F)cc3)ns2)CC1C (stereo not drawn) [compound 19, N-(2,6-dimethylphenyl)-4-[3-(4-fluorobenzyl)-1,2,4-thiadiazol-5-yl]-2-methylpiperazine-1-carboxamide]
- EC50: 200 nM
- Emax: 95%

Structure (SMILES): O=C(Cc1ccc(F)cc1)N1CCN(c2nc(Cc3ccc(F)cc3)ns2)CC1 [compound 2, 4-(4-fluorophenylacetyl),-1-[3-(4-fluorobenzyl)-1,2,4-thiadiazol-5-yl]piperazine]
- EC50: 250 nM
- Emax: 54%

Structure (SMILES): COc1ccc(C(=O)N2CCN(c3nc(Cc4ccc(F)cc4)ns3)CC2C)c(OC)c1 (stereo not drawn) [compound 136, 1-(2,4-dimethoxybenzoyl)-4-[3-(4-fluorobenzyl)-1,2,4-thiadiazol-5-yl]-2-methylpiperazine]
- EC50: 340 nM
- Emax: 83%

Structure (SMILES): Cc1ccc(Cc2nsc(N3CCN(C(=O)c4ccccc4)CC3)n2)cc1 [compound 158, 1-benzoyl-4-[3-(4-methylbenzyl)-1,2,4-thiadiazol-5-yl]piperazine]
- EC50: 2100 nM
- Emax: 57%

Structure (SMILES): O=S(=O)(c1ccccc1)N1CCN(c2nc(Cc3ccc(F)cc3)ns2)CC1 [compound 198, 1-phenylsulfonyl-4-[3-(4-fluoro-benzyl)-1,2,4-thiadiazol-5-yl]piperazine]
- EC50: 349 nM
- Emax: 25%

Structure (SMILES): CCCCc1ccc(C(=O)N2CCN(c3nc(Cc4ccc(C)cc4)ns3)CC2C)cc1 (stereo not drawn) [compound 117, 1-(4-butylbenzoyl)-4-[3-(4-methylbenzyl)-1,2,4-thiadiazol-5-yl]-2-methylpiperazine]
- EC50: 84.1 nM
- Emax: 82%

Structure (SMILES): O=S(=O)(Cc1ccccc1)N1CCN(c2nc(Cc3ccc(Cl)cc3)ns2)CC1 [compound 76, 1-(benzylsulfonyl)-4-[3-(4-chlorobenzyl)-1,2,4-thiadiazol-5-yl]piperazine]
- Emax: 40%

Structure (SMILES): CC(C)(C)c1ccc(S(=O)(=O)N2CCN(c3nc(Cc4ccc(F)cc4)ns3)CC2)cc1 [compound 30, 1-[4-tert-butylphenylsulfonyl]-4-[3-(4-fluorobenzyl)-1,2,4-thiadiazol-5-yl]piperazine]
- Emax: 51%

Structure (SMILES): COc1ccccc1S(=O)(=O)N1CCN(c2nc(Cc3ccc(F)cc3)ns2)CC1 [compound 195]
- EC50: 56.7 nM
- Emax: 99%

Structure (SMILES): Cc1ccc(Cc2nsc(N3CCN(S(=O)(=O)c4ccc(C(C)(C)C)cc4)CC3)n2)cc1 [compound 67, 1-[4-tert-butylphenylsulfonyl]-4-[3-(4-methylbenzyl)-1,2,4-thiadiazol-5-yl]piperazine]
- Emax: 41%

Structure (SMILES): CCOc1ccccc1N1CCN(c2nc(Cc3ccc(F)cc3)ns2)CC1 [compound 186, 1-(2-ethoxyphenyl)-4-[3-(4-fluorobenzyl)-1,2,4-thiadiazol-5-yl]piperazine]
- EC50: 2050 nM
- Emax: 94%

Structure (SMILES): O=S(=O)(c1ccc(O)cc1)N1CCN(c2nc(Cc3ccc(F)cc3)ns2)CC1 [compound 217, 1-(4-hydroxybenzenesulfonyl)-4-[3-(4-fluoro-benzyl)-1,2,4-thiadiazol-5-yl]piperazine]
- EC50: 77 nM
- Emax: 77%

Structure (SMILES): COc1ccc(S(=O)(=O)N2CCN(c3nc(Cc4cccc(F)c4)ns3)CC2)cc1 [compound 193, 1-[4-methoxyphenylsulfonyl]-4-[3-(3-fluoro-benzyl)-1,2,4-thiadiazol-5-yl]piperazine]
- EC50: 10.7 nM
- Emax: 68%

Structure (SMILES): Fc1ccc(Cc2nsc(N3CCN(c4cccc(C(F)(F)F)c4)CC3)n2)cc1 [compound 188, 1-(3-trifluoromethylphenyl)-4-[3-(4-fluorobenzyl)-1,2,4-thiadiazol-5-yl]piperazine]
- Emax: 96%

Structure (SMILES): CC1CN(c2nc(Cc3ccc(F)cc3)ns2)CCN1C(=O)c1ccc(C(C)(C)C)cc1 (stereo not drawn) [compound 128, 1-(4-tert-butylbenzoyl)-4-[3-(4-fluorobenzyl)-1,2,4-thiadiazol-5-yl]-2-methylpiperazine]
- EC50: 240 nM
- Emax: 95%

Structure (SMILES): Cc1ccc(Cc2nsc(N3CCN(S(=O)(=O)c4ccc(Cl)cc4)CC3)n2)cc1 [compound 66, 1-[4-chlorophenylsulfonyl]-4-[3-(4-methylbenzyl)-1,2,4-thiadiazol-5-yl]piperazine]
- Emax: 81%

Structure (SMILES): Cc1ccc(Cc2nsc(N3CCN(S(=O)(=O)c4ccc(C)cc4)C(C)C3)n2)cc1 (stereo not drawn) [compound 50, 1-[4-methylphenylsulfonyl]-4-[3-(4-methylbenzyl)-1,2,4-thiadiazol-5-yl]-2-methylpiperazine]
- Emax: 105%

Structure (SMILES): Cc1ccc(Cc2nsc(N3CCN(S(=O)(=O)c4cccc(C(F)(F)F)c4)C(C)C3)n2)cc1 (stereo not drawn) [compound 56, 1-[3-trifluoromethylphenylsulfonyl]-4-[3-(4-methylbenzyl)-1,2,4-thiadiazol-5-yl]-2-methylpiperazine]
- Emax: 87%

Structure (SMILES): Cc1ccc(C(=O)N2CCN(c3nc(Cc4ccc(F)cc4)ns3)CC2C)cc1 (stereo not drawn) [compound 139, 1-(4-methylbenzoyl)-4-[3-(4-fluorobenzyl)-1,2,4-thiadiazol-5-yl]-2-methylpiperazine]
- EC50: 400 nM
- Emax: 87%

Structure (SMILES): O=C(c1ccc(F)cc1)N1CCN(c2nc(Cc3ccc(Cl)cc3)ns2)CC1 [compound 153, 1-(4-fluorobenzoyl)-4-[3-(4-chlorobenzyl)-1,2,4-thiadiazol-5-yl]piperazine]
- EC50: 1440 nM
- Emax: 53%

Structure (SMILES): O=C(c1ccc(F)cc1)N1CCN(c2nc(Cc3ccccc3)ns2)CC1 [compound 163, 1-(4-fluorobenzoyl)-4-[3-benzyl-1,2,4-thiadiazol-5-yl]piperazine]
- EC50: 3610 nM
- Emax: 67%

Structure (SMILES): CC1CN(c2nc(Cc3ccc(F)cc3)ns2)CCN1C(=O)c1ccc(-c2ccccc2)cc1 (stereo not drawn) [compound 129, 1-(1,1′-biphenyl-4-ylcarbonyl)-4-[3-(4-fluorobenzyl)-1,2,4-thiadiazol-5-yl]-2-methylpiperazine]
- EC50: 240 nM
- Emax: 61%

Structure (SMILES): CC1CN(c2nc(Cc3ccc(F)cc3)ns2)CCN1C(=O)C(Cl)c1ccccc1 (stereo not drawn) [compound 7, 1-[chloro(phenyl)acetyl]-4-[3-(4-fluorobenzyl)-1,2,4-thiadiazol-5-yl]-2-methylpiperazine]
- Emax: 69%

Structure (SMILES): CC(=O)Nc1ccc(S(=O)(=O)N2CCN(c3nc(Cc4ccc(C)cc4)ns3)CC2)cc1 [compound 49, 1-[4-acetamidophenylsulfonyl]-4-[3-(4-methylbenzyl)-1,2,4-thiadiazol-5-yl]piperazine]
- EC50: 0.106 nM
- Emax: 77%

Structure (SMILES): Cc1ccc(Cc2nsc(N3CCN(S(=O)(=O)c4ccc5ccccc5c4)CC3)n2)cc1 [compound 65, 1-[2-naphtylsulfonyl]-4-[3-(4-methylbenzyl)-1,2,4-thiadiazol-5-yl]piperazine]
- EC50: 39.3 nM
- Emax: 78%

Structure (SMILES): CCC(C(=O)NCCN1CCN(c2nc(Cc3ccc(F)cc3)ns2)CC1)c1ccccc1 (stereo not drawn) [compound 111, 2-phenyl-N-{2-[4-[3-(4-fluorobenzyl)-1,2,4-thiadiazol-5-yl]piperazin-1-yl]ethyl}butanamide]
- EC50: 1790 nM
- Emax: 79%

Structure (SMILES): COc1cccc(Cc2nsc(N3CCN(C(=O)c4ccccc4F)C(C)C3)n2)c1 (stereo not drawn) [compound 115, 1-(2-fluorobenzoyl)-4-[3-(3-methoxybenzyl)-1,2,4-thiadiazol-5-yl]-2-methylpiperazine]
- EC50: 36.1 nM
- Emax: 75%

Structure (SMILES): CCOc1ccc(S(=O)(=O)N2CCN(c3nc(Cc4ccc(F)cc4)ns3)CC2)cc1 [compound 196, 1-[4-ethoxyphenylsulfonyl]-4-[3-(4-fluoro-benzyl)-1,2,4-thiadiazol-5-yl]piperazine]
- EC50: 17.6 nM
- Emax: 42%

Structure (SMILES): O=C(/C=C/c1ccccc1)N1CCN(c2nc(Cc3ccc(Cl)cc3)ns2)CC1 [compound 88, [(2E)-3-phenylprop-2-enoyl]-4-[3-(4-chlorobenzyl)-1,2,4-thiadiazol-5-yl]piperazine]
- Emax: 72%
